Values of other authors as cited in patent US12240813B2, “Deuterated tryptamine derivatives and methods of use” (priority 2020, dated 2025).

Conditions: oral, cited from earlier work

COc1cc(CCNCc2ccccc2OC)c(OC)cc1Cl [2C—C—NBOMe, 2-(4-Chloro-2,5-dimethoxyphenyl)-N-[(2-methoxyphenyl)methyl]ethan-1-amine]
very strong psychedelic doses: 500 to 700 µg | orally active dose (doses as low as): ≥ 25 µg
